Laboratory results taken from US12590130B2, “Bipartite molecules and uses thereof in treating diseases associated with abnormal protein aggregates” (ACADEMIA SINICA, priority 2014, dated 2026).

Tests used:
109QmHtt [1] = test: Filter trap assay of aggregated 109QmHtt in Neuro2a cells; format: cell-based
Procedure: (§1) FIG. 4. Testing the ability of therapeutic peptides to decrease mHtt aggregation in Neuro2a cells overexpressing mHtt. Panel A: Filter trap assays and corresponding quantitation of cells (panel B) treated as indicated at 8 hours (T1), 24 hours (T2), or both (T1+2) after transfection with the 109QmHtt construct. […] Panel C: Western blots and quantitation (panel D) of RIPA-soluble (sol) and -insoluble (ins) fractions of Neuro2a cells overexpressing 25QHtt or 109QmHtt and treated as indicated. […] Panel E: Western blot of the 109QmHtt in cells treated as indicated. Note that MG132 blocked the effect of 8R10Q peptide with respect to decreasing insoluble 109QmHtt. Panel F: Quantitation of ratio of 109QmHtt in cells treated MG132 (+) over DMSO (−) in relationship to peptides. Statistical analysis conducted with one way ANOVA, *<0.05, **<0.01, ***<0.001, ns: not significant.
Whether the peptides could modulate the aggregation propensity of mHtt was next investigated.

R6/2 transgenic mice = test: Therapeutic effect in R6/2 transgenic mice (function, blood sugar, lifespan); format: in vivo, mouse
Source text: FIG. 6. 8R10Q ameliorated functional deterioration of R6/2 transgenic mice. Panel A: Longitudinal rotarod performance of wild type (WT) and R6/2 mice treated with PBS or 8R10Q peptide. Note the significant delay in motor deterioration of R6/2 mice treated with 8R10Q from 11 weeks of age. Panel B: T maze test of WT and R6/2 mice at 13 weeks of age. […] Panel C: The curves of blood sugar in serum of WT and R6/2 mice treated as indicated. […] Panel D: Lifespan of WT and R6/2 mice treated with PBS vs. 8R10Q. 100% of R6/2 mice died before 16 weeks of age. […] WT mice N=6/group; R6/2 mice N=10/group; statistical analysis performed with two way ANOVA (panels A and C), one way ANOVA (panel B), *p<0.05; **p<0.01; ***p<0.001, ns: not significant, and log-rank (Mantel-Cox) Test (D), ***p<0.0001.
To test the therapeutic effect of the peptide in vivo, the 8R10Q peptide was delivered 6 days/week into the wild type (WT) or R6/2 transgenic mice through intranasal aspiration or continuously with the Alzet osmotic minipumps into the neostriatum. […] In fact, the 8R10Q-treated R6/2 mice performed even better than the 11 week-old PBS-treated mice on average. […] The R6/2 mice were previously reported to have diabetes. Bjorkqvist et al., Hum Mol Genet (2005) 14:565-74; and Hunt et al., Experimental Brain Res (2005) 166:220-9. […] To sum up, the 8R10Q peptide effectively delayed the onset of disease and ameliorated the pathological phenotypes.

109QmHtt [2] = test: Western blot of RIPA-soluble and -insoluble fractions of Neuro2a lysates; format: cell-based; settings: peptide-treated samples
Procedure: as §1
For further characterization, Neuro2a lysates were separated into the RIPA-soluble (sol) and insoluble (ins) fractions ([…]). 8R10Q peptide decreased the level of mHtt in both the soluble and insoluble fractions as compared with water, 8R, or the scrambled (s8R10Q) control (FIG. 4, panel D). […]

[3] = Solubility of therapeutic peptides; format: physicochemical
Procedure: In this study, the rational design was tested for HD. Several bipartite therapeutic peptides containing 8 consecutive arginines (8R) attached to a stretch of consecutive glutamines (polyQ) were synthesized and their biological activity of decreasing the aggregation propensity of the mHtt protein was investigated. The length of the polyQ of these bipartite peptides was 5 (8R5Q), 10 (8R10Q), 15 (8R15Q) or 20 (8R20Q) (Table 2).

109QmHtt aggregates = test: TIRF microscopy of mHtt aggregates in Neuro2a cells; format: cell-based; settings: Neuro2a cells expressing 109QmHtt
Procedure: FIG. 3. Diagrams showing the co-localization of tested bipartite peptides with the 109QmHtt aggregates. Panel A: Structure of TAMRA-labeled 8R10Q used in this study. Panel B: Epifluorescence micrographs of Neuro2a cells expressing 109QmHtt treated with TAMRA-8R10Q (8R10Q) at various time points. Note the co-localization of 8R10Q and 109QmHttGFP aggregates (GFP) from 8-24 hours (arrows). Scale bar: 10 μm. Panel C: TIRF micrographs of the Neuro2a expressing 109QmHtt treated with water or peptides as indicated at various time points. Note the decrease in aggregate size in 8R10Q and 8R15Q-treated cells. Panel D: Quantitation of the size of individual aggregates in Neuro2a at 8 hours (left) and 24 hours (right) after peptide treatment. […] Panel E: Quantitation of the number of aggregates in 20 Neuro2a cells at 12 hours (left) and 24 hours (right) after peptide treatment. Both the 8R10Q and 8R15Q increased the number of aggregates. Statistics performed with one way ANOVA. **p<0.01; ***p<0.001.
To probe into the details of the effect of peptide on the mHtt aggregates, the parameters of the mHtt aggregates were visualized and measured using the Total Internal Reflection Fluorescence (TIRF) microscopy. […] The number of aggregates in 20 cells was also calculated. 8R10Q and 8R15Q increased the number of the aggregates by 4-5 fold (FIG. 3, panel E).

H-RRRRRRRRWDQQQQQQQQQQ-NH2 [Peptide 8R10Q, NH2-(R)8-W-D-(Q)10-CONH2]
aggregated 109QmHtt by filter trap assay (109QmHtt [1]; 20 μM peptide added at 8 hours (T1) or 8 plus 24 hours (T1+T2) after transfection, vs water or 8R): significantly reduced | aggregated 109QmHtt by filter trap assay (109QmHtt [1]; peptide added at 24 hours alone): no obvious effects | T maze test memory (R6/2 transgenic mice; 13 week-old R6/2 mice, intranasal): corrected the memory deficit | rotarod therapeutic effect, intracerebral delivery (R6/2 transgenic mice; Alzet osmotic minipumps into the neostriatum): very similar therapeutic effect to that given intranasally | diabetic phenotype, inflammatory index and abnormal liver function (R6/2 transgenic mice; R6/2 mice): decreased | diabetes phenotype (R6/2 transgenic mice; R6/2 mice, intracerebral): significantly corrected the diabetes phenotype | blood sugar (R6/2 transgenic mice; R6/2 mice, intranasal): delayed the rise and decreased the level of blood sugar | prevention of premature death (R6/2 transgenic mice; R6/2 mice, intranasal, at 16 weeks of age): 41% | age until which motor deterioration (rotarod) was delayed (R6/2 transgenic mice; R6/2 mice, intranasal, deterioration significant from 11 weeks with PBS): 13 weeks | body weights (R6/2 transgenic mice; WT or R6/2 mice, intranasal or intracerebral route): remained comparable to those treated with PBS | ratio of the MG132:DMSO 109QmHtt (109QmHtt [2]): much higher | Solubility (DMEM/10% FBS) ([3]; DMEM/10% FBS): Soluble | solubility in water or culture medium ([3]; water or culture medium): highly soluble | average size of the aggregates (109QmHtt aggregates): 0.3 μm^2
